The source of these data is patent US20070142437A1, “CHEMICAL COMPOUNDS” (priority 2005, published 2007).

What all share (assay type): biochemical
Assay [1] concerns the target T1, CDK4 (Homo sapiens, UniProt P11802).
T1 construct: made in house
The assay can be described thus: CDK4 substrate phosphorylation assay (Rb protein, 33P-ATP). The note with it: Inhibition of CDK4. The method, then: (§1) The compounds of the present invention have valuable pharmacologic properties. Different compounds from this class are particularly effective at inhibiting CDK2 and/or CDK4 enzymes at concentrations, which range from 0.0001 to 1 μM and additionally show specificity relative to other kinases. Substrate phosphorylation assays were carried out as follows:
Cyclin D1 and cyclin-dependent kinase 4 were expressed utilizing a baculovirus expression system. The catalytic activity of CDK4 protein was assayed by measuring the phosphorylation of Rb protein. A truncated Rb protein (residues 773-928 of the native retinoblastoma protein, fused to glutathione S-transferase to facilitate purification) was used as the phosphoryl acceptor. The assay conditions were 100 mM HEPES (N-[2-hydroxyethyl]piperzine-N′-[2-ethanesulfonic acid]), pH 7.5, 0.5 μM GST-Rb protein, 1 μCi/mL [^33P]-ATP (1 nM-20 μM), 5-20 mM MgCl2, 2.5 mM EDTA, 1 mM dithiotheitol, 0.2 mg/mL bovine serum albumin, 2% (v/v) dimethyl sulfoxide (DMSO), CDK4 enzyme (5-50 nM) in a final volume of 50 μL. Reactions were incubated for time periods of 10-60 min at 30° C. and terminated by the addition of 50 μL quench (1 mM ATP/100 mM EDTA, pH 7.0). Detection of protein phosphorylation was accomplished by scintillation counting following collection of protein in 96 well plates coated with Glutathione or trapping of protein onto phosphocellulose filters. Counts detected by these methodologies minus the appropriate background were assumed to be proportional to the reaction initial rates. IC50 values were determined by measuring enzyme activity in the presence of different inhibitor concentrations (0.1 nM to 50 μM). IC50s were determined by a least squares fit to the equation CPM=Vmax*(1−([I]/(K+[I])))+nsb, or pIC50s were determined by a fit to the equation CPM=nsb+(Vmax−nsb)/(1+(x/10^x−pIC50)), where nsb are the background counts.

Assay [2] has as its target T2, CDK2 (Homo sapiens, UniProt P24941).
T2 construct: made in house
The assay can be described thus: CDK2 substrate phosphorylation assay (biotinylated peptide, 32P-ATP). Particulars: Inhibition of CDK2. The method, then:
as §1
Cyclin dependent protein kinase 2 assays utilized the peptide Biotin-aminohexyl-ARRPMSPKKKA-NH2 as phosphoryl group acceptor. CDK2 was expressed utilizing a baculovirus expression system and was partially purified to comprise 20-80% of total protein, with no detectable competing reactions present. Typically, assays were performed by incubating enzyme (0.2-10 nM), with and without inhibitor, peptide substrate (1-10 nM), [g-^32P]ATP (1-20 nM), and 10-20 mM Mg^2+ for periods of time generally within the range 10-120 minutes. Reactions were terminated with 0.2-2 volumes of either 20% acetic acid or 50-100 mM EDTA buffered to pH 7 (substrate consumption <20%). The buffer employed in enzyme assay was 100 mM HEPES pH 7.5 containing 0.1 mg/mL BSA and 5% DMSO. Inhibitors were diluted in 100% DMSO prior to addition into the assay. Detection of peptide phosphorylation was accomplished by scintillation counting following either collection of peptide onto phosphocellulose filters (for reactions stopped with acetic acid), collection of peptide in wells of 96 well plates coated with Streptavidin (Pierce) (reactions were stopped with EDTA), or addition of Avidin coated Scintillant impregnated beads (Scintillation Proximity Assays from Amersham, reactions were stopped with EDTA). Counts detected by any of these methodologies minus the appropriate background (assays with additional 40 mM EDTA or lacking peptide substrate) were assumed to be proportional to the reaction initial rates, and IC50s were determined by a least squares fit to the equation CPM=Vmax*(1−([I]/(K+[I])))+nsb, or −pIC50s were determined by a fit to the equation CPM=nsb+(Vmax−nsb)/(1+(x/10^x−pIC50)), where nsb are the background counts. Filters are washed four times with 75 mM phosphoric acid. Radioactivity was determined by liquid scintillation counting.

The target in assay [3] is hVEGFR2 (Homo sapiens, UniProt P35968). The assay can be described thus: VEGFR2 HTRF assay. The note with it: Inhibition of VEGFR2. The method, then:
The compounds of the present invention elicit important and measurable pharmacological responses. Different compounds from this class are particularly effective at inhibiting VEGFR2 enzymes, as described by the VEGFR2 HTRF assay below, at concentrations, which range from 0.0001 to 1 μM.
The assays were performed in 96-well black plates. 10 nM hVEGFR2 was used to phosphorylate 0.36 μM peptide (Biotin-Ahx-EEEEYFELVAKKKK) in the presence of 75 μM ATP, 5 mM MgCl2, 0.3 mM DTT, 0.1 mg/ml BSA, and 0.1 M HEPES (pH 7.5). 10 μl 0.5 M EDTA was added to reactions as negative controls. The 50 μl kinase reaction with or without inhibitors in 5% DMSO was carried out at room temperature for 45 minutes, then stopped by 40 μl of 125 mM EDTA. 2.4 μg/ml Streptavidin-APC and 0.15 μg/ml Eu-α-pY, in the presence of 0.1 mg/ml BSA, 0.1 M HEPES (pH7.5), were added to a final volume of 140 μl. The plate was incubated for 10 min at room temperature (22° C.) and read on the Victor with the time resolved fluorescence mode by exciting at 340 nm and reading the emission at 665 nm.
• Peptide from Synpep (Dublin, Calif.) • ATP, MgCl2, DTT, BSA, HEPES, EDTA, DMSO from Sigma Streptavidin-APC from Molecular Probes (Eugene, Oreg.) • Eu-α-pY from EG&G Wallac (Gaithersburg, Md.)

Chain of hVEGFR2 (P35968 20-1356): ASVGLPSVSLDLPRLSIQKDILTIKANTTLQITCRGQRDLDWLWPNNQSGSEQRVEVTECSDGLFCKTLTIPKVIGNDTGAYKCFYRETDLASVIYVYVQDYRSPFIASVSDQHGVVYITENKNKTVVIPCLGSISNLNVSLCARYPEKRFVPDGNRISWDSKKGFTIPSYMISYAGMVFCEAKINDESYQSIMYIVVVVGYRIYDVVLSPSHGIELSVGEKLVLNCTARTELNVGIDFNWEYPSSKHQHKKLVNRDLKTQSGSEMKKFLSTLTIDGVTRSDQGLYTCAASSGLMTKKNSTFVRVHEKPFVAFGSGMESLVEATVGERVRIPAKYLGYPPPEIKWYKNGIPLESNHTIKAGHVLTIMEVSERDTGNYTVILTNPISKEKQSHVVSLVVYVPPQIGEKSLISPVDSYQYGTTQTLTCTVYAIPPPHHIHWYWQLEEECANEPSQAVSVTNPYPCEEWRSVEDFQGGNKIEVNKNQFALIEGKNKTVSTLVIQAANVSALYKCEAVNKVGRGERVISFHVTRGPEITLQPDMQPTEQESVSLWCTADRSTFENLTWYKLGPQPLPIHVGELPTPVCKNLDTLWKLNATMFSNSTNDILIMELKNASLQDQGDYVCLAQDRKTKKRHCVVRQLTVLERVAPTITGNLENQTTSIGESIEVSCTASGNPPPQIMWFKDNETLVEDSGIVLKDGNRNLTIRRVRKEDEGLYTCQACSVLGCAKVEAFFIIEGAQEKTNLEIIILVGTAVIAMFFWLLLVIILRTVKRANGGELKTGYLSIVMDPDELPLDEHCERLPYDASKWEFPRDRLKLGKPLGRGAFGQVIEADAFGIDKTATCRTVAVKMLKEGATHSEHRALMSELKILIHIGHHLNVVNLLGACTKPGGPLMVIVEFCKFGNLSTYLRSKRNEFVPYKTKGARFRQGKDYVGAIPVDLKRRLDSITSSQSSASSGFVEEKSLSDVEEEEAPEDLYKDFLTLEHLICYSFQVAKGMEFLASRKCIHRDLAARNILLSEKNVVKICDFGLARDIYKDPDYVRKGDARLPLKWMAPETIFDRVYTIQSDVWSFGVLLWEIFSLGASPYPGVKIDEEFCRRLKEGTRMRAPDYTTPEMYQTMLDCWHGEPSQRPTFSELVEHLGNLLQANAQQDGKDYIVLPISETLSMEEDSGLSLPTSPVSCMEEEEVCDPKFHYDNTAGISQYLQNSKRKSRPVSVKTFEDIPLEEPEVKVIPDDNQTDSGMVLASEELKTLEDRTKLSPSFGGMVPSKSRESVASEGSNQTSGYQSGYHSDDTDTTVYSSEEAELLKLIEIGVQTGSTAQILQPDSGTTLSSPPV
T1 sequence (P11802 whole entry, species assumed): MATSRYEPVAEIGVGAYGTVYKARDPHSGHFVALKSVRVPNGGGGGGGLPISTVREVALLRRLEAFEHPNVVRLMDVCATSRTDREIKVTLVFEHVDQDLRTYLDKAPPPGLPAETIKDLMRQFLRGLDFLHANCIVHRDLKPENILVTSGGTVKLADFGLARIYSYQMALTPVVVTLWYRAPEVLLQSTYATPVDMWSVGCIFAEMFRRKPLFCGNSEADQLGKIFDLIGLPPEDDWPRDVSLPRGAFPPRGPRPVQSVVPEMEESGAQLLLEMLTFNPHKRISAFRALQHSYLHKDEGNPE
T1 sequence (P24385 whole entry partner, species assumed): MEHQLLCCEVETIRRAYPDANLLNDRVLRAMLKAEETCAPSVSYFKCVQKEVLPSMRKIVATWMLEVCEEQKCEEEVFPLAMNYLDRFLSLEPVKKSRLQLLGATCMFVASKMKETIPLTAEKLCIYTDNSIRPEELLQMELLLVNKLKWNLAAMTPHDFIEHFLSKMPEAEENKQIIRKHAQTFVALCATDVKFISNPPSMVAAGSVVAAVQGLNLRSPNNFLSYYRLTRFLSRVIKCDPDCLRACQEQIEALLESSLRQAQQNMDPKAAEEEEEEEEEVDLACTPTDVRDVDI

Take `c1ccc(-c2cnc(Nc3ccc(CN4CCOCC4)cc3)o2)cc1` [Example 8, N-[4-(Morpholin-4-ylmethyl)phenyl]-5-phenyl-1,3-oxazol-2-amine]: the values for the IC50 in assay [1], in assay [2] and in assay [3] were < 1000 nM, < 10000 nM and < 1000 nM, respectively.

For `COc1cccc(-c2cnc(Nc3ccc(N4CCOCC4)cc3)o2)c1` [Example 9, 5-(3-Methoxyphenyl)-N-(4-morpholin-4-ylphenyl)-1,3-oxazol-2-amine], the IC50 in assay [1], in assay [2] and in assay [3] was < 1000 nM each time.

As to `COc1cccc(-c2cnc(Nc3ccc(CN4CCOCC4)cc3)o2)c1` [Example 11, 5-(3-Methoxyphenyl)-N-[4-(morpholin-4-ylmethyl)phenyl]-1,3-oxazol-2-amine], the IC50 in assay [1], in assay [2] and in assay [3] was < 1000 nM throughout.

For the compound `CC(C)Oc1cccc(-c2cnc(Nc3ccc(N4CCN(C)CC4)cc3)o2)c1` [Example 12, 5-(3-Isopropoxyphenyl)-N-[4-(4-methylpiperazin-1-yl)phenyl]-1,3-oxazol-Z -amine], the figures for the IC50 in assay [1], in assay [2] and in assay [3] were < 100 nM, < 100 nM and < 1000 nM, respectively.

As for `CN1CCN(c2ccc(Nc3ncc(-c4cccc(OC5CCCC5)c4)o3)cc2)CC1` [Example 13, 5-[3-(cyclopentyloxy)phenyl]-N-[4-(4-methylpiperazin-1-yl)phenyl]-1,3-oxazol-2-amine], the IC50 in assay [1], in assay [2] and in assay [3] was < 100 nM each time.

As for `CC(C)COc1cccc(-c2cnc(Nc3ccc(N4CCN(C)CC4)cc3)o2)c1` [Example 14, 5-(3-Isobutoxyphenyl)-N-[4-(4-methylpiperazin-1-yl)phenyl]-1,3-oxazol-2-amine], the IC50 is < 100 nM in assay [1], < 1000 nM in assay [2] and < 1000 nM in assay [3].

Regarding `CN1CCN(c2ccc(Nc3ncc(-c4cccc(OCc5ccccc5)c4)o3)cc2)CC1` [Example 15, 5-[3-(Benzyloxy)phenyl]-N-[4-(4-methylpiperazin-1-yl)phenyl]-1,3-oxazol-2-amine], the IC50 in assay [1] is < 100 nM; in assay [2], < 1000 nM; in assay [3], < 1000 nM.

In the case of `C=C(C)COc1cccc(-c2cnc(Nc3ccc(N4CCN(C)CC4)cc3)o2)c1` [Example 16, N-[4-(4-methylpiperazin-1-yl)phenyl]-5-{3-[(2-methylprop-2-enyl)oxy]phenyl}-1,3-oxazol-2-amine], the IC50 in assay [1] is < 100 nM; in assay [2], < 100 nM; in assay [3], < 1000 nM.

As to `CCCOc1cccc(-c2cnc(Nc3ccc(N4CCN(C)CC4)cc3)o2)c1` [Example 17, N-[4-(4-methylpiperazin-1-yl)phenyl]-5-(3-propoxyphenyl)-1,3-oxazol-2-amine], the values for the IC50 in assay [1], in assay [2] and in assay [3] were < 100 nM, < 1000 nM and < 100 nM, respectively.

Regarding `CN1CCN(c2ccc(Nc3ncc(-c4cccc(OC5CCCCC5)c4)o3)cc2)CC1` [Example 18, 5-[3-(cyclohexyloxy)phenyl]-N-[4-(4-methylpiperazin-1-yl)phenyl]-1,3-oxazol-2-amine], the values for the IC50 in assay [1], in assay [2] and in assay [3] were < 100 nM, < 100 nM and < 1000 nM, respectively.

`COc1cccc(-c2cnc(Nc3ccc(N4CCN(C)CC4)c(Cl)c3)o2)c1` [Example 19, N-[3-chloro-4-(4-methylpiperazin-1-yl)phenyl]-5-(3-methoxyphenyl)-1,3-oxazol-2-amine]: the IC50 in assay [1] was < 100 nM; in assay [2], < 1000 nM; in assay [3], < 1000 nM.

On to `COc1cccc(-c2cnc(Nc3ccc(N4CCN(C)CC4)c(F)c3)o2)c1` [Example 20, N-[3-fluoro-4-(4-methylpiperazin-1-yl)phenyl]-5-(3-methoxyphenyl)-1,3-oxazol-2-amine], for which the figures for the IC50 in assay [1], in assay [2] and in assay [3] were < 100 nM, < 1000 nM and < 1000 nM, respectively.

As to `COc1cccc(-c2cnc(Nc3ccc(N4CCN(C)CC4)c(C(F)(F)F)c3)o2)c1` [Example 21, 5-(3-Methoxyphenyl)-N-[4-(4-methylpiperazin-1-yl)-3-(trifluoromethyl)phenyl]-1,3-oxazol-2-amine], the figures for the IC50 in assay [1], in assay [2] and in assay [3] were < 100 nM, < 1000 nM and < 1000 nM, respectively.

As to `COc1cccc(-c2cnc(Nc3ccc(N4CCN(C)CC4)c(C)c3)o2)c1` [Example 22, 5-(3-Methoxyphenyl)-N-[3-methyl-4-(4-methylpiperazin-1-yl)phenyl]-1,3-oxazol-2-amine], the IC50 in assay [1] is < 100 nM; in assay [2] it was < 1000 nM; in assay [3], < 100 nM.

With `COc1cccc(-c2cnc(Nc3ccc(N4CC(C)NC(C)C4)cc3)o2)c1` (stereo not drawn) [Example 23, N-[4-(3,5-dimethylpiperazin-1-yl)phenyl]-5-(3-methoxyphenyl)-1,3-oxazol-2-amine], the IC50 in assay [1] is < 1000 nM; in assay [2], < 100 nM; in assay [3] it was < 1000 nM.

In the case of `COc1cccc(-c2cnc(Nc3ccc(N4CCN(C)CC4)cc3C)o2)c1` [Example 24, 5-(3-methoxyphenyl)-N-[2-methyl-4-(4-methylpiperazin-1-yl)phenyl]-1,3-oxazol-2-amine], the IC50 in assay [1] was < 1000 nM; in assay [2], < 10000 nM; in assay [3], < 1000 nM.

With `CN1CCN(c2ccc(Nc3ncc(-c4cccc(OC5CCCC5)c4)o3)cc2C(F)(F)F)CC1` [Example 25, 5-[3-(Cyclopentyloxy)phenyl]-N-[4-(4-methylpiperazin-1-yl)-3-(trifluoromethyl)phenyl]-1,3-oxazol-2-amine], the IC50 is < 100 nM in assay [1], < 100 nM in assay [2] and < 1000 nM in assay [3].

In the case of `CN1CCN(c2ccc(Nc3ncc(-c4cccc(OC5CCCC5)c4)o3)cc2Cl)CC1` [Example 26, N-[3-Chloro-4-(4-methylpiperazin-1-yl)phenyl]-5-[3-(cyclopentyloxy)phenyl]-1,3-oxazol-2-amine], the IC50 in assay [1] is < 100 nM; in assay [2], < 100 nM; in assay [3], < 1000 nM.

In the case of `Cc1cc(Nc2ncc(-c3cccc(OC4CCCC4)c3)o2)ccc1N1CCN(C)CC1` [Example 27, 5-[3-(cyclopentyloxy)phenyl]-N-[3-methyl-4(4-methylpiperazin-1-yl)phenyl]-1,3-oxazol-2-amine], the IC50 in assay [1], in assay [2] and in assay [3] was < 100 nM throughout.

The IC50 is the concentration needed to halve the response being measured. A lower IC50 goes with higher potency.
